As usually defined, the TGI is the concentration giving total growth inhibition. Lower therefore signals greater sensitivity of the cells.

Our source for the TGI values is PubChem BioAssay (NCI).

Each structure is given as a SMILES string.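 How tested: cells in 96-well plates exposed to compound for 48 hours at five concentrations. TGI is the concentration that stops growth completely.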 Bounds are passed on as bounds.

For the first experiment, the system named is A549 NSCLC. As to the kind of experiment: DTP human tumour cell line panel, 48 h.
As for `CCCC(O)C(NC(=O)CCl)C(=O)O` (stereo not given), the TGI was greater than 100 µM.

The compound `CN1C(=O)C(CC=O)(C(C)(C)C)c2ccccc21` (stereo not given) registered a TGI greater than 100 µM.

For `COc1cc(/C=C/C(=O)O)ccc1C(=O)OCc1ccccc1`, the TGI was greater than 100 µM.

On to `O=C(O)c1cccnc1`, for which the total growth inhibition concentration (TGI) was greater than 100 µM.

For `Cc1cccc(C(C)C)c1NC(=O)CC1Sc2ccccc2NC1=O` (stereo not given), the TGI was greater than 100 µM.

`CC(C)C1=C(Cc2ccccc2)C(=O)O/C1=C\c1cc(Cl)c(O)c(Cl)c1`: the TGI is 50.5 µM.

`COc1cc2c(cc1O)C1C(O)C(O)C=C3CCN(C2)C31` (stereo not given): the TGI was 10.5 µM.

`C[C@@H]1CCC2[C@@H](C)[C@@H](OCCO[C@H]3OC4O[C@@]5(C)CCC6[C@H](C)CCC([C@H]3C)[C@@]46OO5)OC3O[C@@]4(C)CCC1[C@]32OO4` (stereo not given in full) returned a TGI greater than 100 µM.

Regarding `CC(C)=CCc1c(O)ccc2ccc(=O)oc12`, the TGI is greater than 100 µM.

The test system of a further experiment is HL-60(TB) leukemia. In words: DTP human tumour cell line panel, 48 h.
Consider `CCOC(=O)c1csc(NC(=O)CN2CCN(C)CC2)n1`, for which the TGI was greater than 100 µM.

Compound `CC#C[P+](c1ccccc1)(c1ccccc1)c1ccccc1` gave a TGI of 13.9 µM.

In turn, `CCCC(O)C(NC(=O)CCl)C(=O)O` (stereo not given) showed a TGI greater than 100 µM.

Consider `CN1C(=O)C(CC=O)(C(C)(C)C)c2ccccc21` (stereo not given), for which the TGI was greater than 100 µM.

Take `COc1cc(/C=C/C(=O)O)ccc1C(=O)OCc1ccccc1`: the TGI is greater than 100 µM.

As to `O=C(CC(=O)c1ccccc1)CC(O)(c1ccccc1)c1ccccc1`, the TGI is 6.54 µM.

`O=C(O)c1cccnc1` registered a TGI greater than 100 µM.

With `Cc1cccc(C(C)C)c1NC(=O)CC1Sc2ccccc2NC1=O` (stereo not given), the TGI was greater than 100 µM.

In turn, `CC(C)C1=C(Cc2ccccc2)C(=O)O/C1=C\c1cc(Cl)c(O)c(Cl)c1` displayed a TGI of 41.7 µM.

Compound `COc1cc2c(cc1O)C1C(O)C(O)C=C3CCN(C2)C31` (stereo not given) returned a TGI of 7.53 µM.

`C[C@@H]1CCC2[C@@H](C)[C@@H](OCCO[C@H]3OC4O[C@@]5(C)CCC6[C@H](C)CCC([C@H]3C)[C@@]46OO5)OC3O[C@@]4(C)CCC1[C@]32OO4` (stereo not given in full) registered a TGI greater than 100 µM.

On to `Cc1cc(OCc2nnc3n2N=C(c2cc(F)c(Cl)cc2Cl)/C(=C/c2ccc(Cl)cc2)S3)ccc1Cl`, for which the TGI was 21.3 µM.

Consider `CC(C)=CCc1c(O)ccc2ccc(=O)oc12`, for which the TGI was greater than 80.6 µM.

A further experiment has as its system M14 melanoma. As to the kind of experiment: DTP human tumour cell line panel, 48 h.
Consider `CCOC(=O)c1csc(NC(=O)CN2CCN(C)CC2)n1`, for which the TGI is greater than 100 µM.

The compound `CC(C)(C)[Si](C)(C)OC1/C(=C/C#N)C(n2ccc(=O)[nH]c2=O)OC1CO` (stereo not given) showed a TGI greater than 100 µM.

For `CC#C[P+](c1ccccc1)(c1ccccc1)c1ccccc1`, the TGI stood at 5.78 µM.

As to `CN1C(=O)C(CC=O)(C(C)(C)C)c2ccccc21` (stereo not given), the TGI was greater than 100 µM.

The compound `O=C(CC(=O)c1ccccc1)CC(O)(c1ccccc1)c1ccccc1` yielded a TGI of 14.9 µM.

`O=C(O)c1cccnc1` registered a TGI greater than 100 µM.

As for `Cc1cccc(C(C)C)c1NC(=O)CC1Sc2ccccc2NC1=O` (stereo not given), the TGI was greater than 100 µM.

As for `CC(C)C1=C(Cc2ccccc2)C(=O)O/C1=C\c1cc(Cl)c(O)c(Cl)c1`, the TGI worked out at 35.6 µM.

`COc1cc2c(cc1O)C1C(O)C(O)C=C3CCN(C2)C31` (stereo not given) gave a TGI of 4.46 µM.

Take `C[C@@H]1CCC2[C@@H](C)[C@@H](OCCO[C@H]3OC4O[C@@]5(C)CCC6[C@H](C)CCC([C@H]3C)[C@@]46OO5)OC3O[C@@]4(C)CCC1[C@]32OO4` (stereo not given in full): the TGI was greater than 100 µM.

The compound `Cc1cc(OCc2nnc3n2N=C(c2cc(F)c(Cl)cc2Cl)/C(=C/c2ccc(Cl)cc2)S3)ccc1Cl` returned a TGI of 65.5 µM.

In another experiment the test system is NCI-H226 lung. In words: DTP human tumour cell line panel, 48 h.
`CCOC(=O)c1csc(NC(=O)CN2CCN(C)CC2)n1` returned a concentration for total growth inhibition (TGI) greater than 100 µM.

Take `CC#C[P+](c1ccccc1)(c1ccccc1)c1ccccc1`: the TGI came out at 14.2 µM.

The compound `CCCC(O)C(NC(=O)CCl)C(=O)O` (stereo not given) returned a TGI greater than 100 µM.

Take `COc1cc(/C=C/C(=O)O)ccc1C(=O)OCc1ccccc1`: the TGI was greater than 100 µM.

Regarding `O=C(O)c1cccnc1`, the TGI was greater than 100 µM.

The compound `Cc1cccc(C(C)C)c1NC(=O)CC1Sc2ccccc2NC1=O` (stereo not given) returned a TGI greater than 100 µM.

The compound `CC(C)C1=C(Cc2ccccc2)C(=O)O/C1=C\c1cc(Cl)c(O)c(Cl)c1` gave a TGI of 39.5 µM.

In the case of `COc1cc2c(cc1O)C1C(O)C(O)C=C3CCN(C2)C31` (stereo not given), the TGI was determined as 7.07 µM.

In turn, `C[C@@H]1CCC2[C@@H](C)[C@@H](OCCO[C@H]3OC4O[C@@]5(C)CCC6[C@H](C)CCC([C@H]3C)[C@@]46OO5)OC3O[C@@]4(C)CCC1[C@]32OO4` (stereo not given in full) yielded a TGI greater than 100 µM.

As for `Cc1cc(OCc2nnc3n2N=C(c2cc(F)c(Cl)cc2Cl)/C(=C/c2ccc(Cl)cc2)S3)ccc1Cl`, the TGI was greater than 100 µM.

In turn, `CC(C)=CCc1c(O)ccc2ccc(=O)oc12` had a TGI greater than 100 µM.

Another experiment deals with SF-539 CNS. As to the kind of experiment: DTP human tumour cell line panel, 48 h.
For `CC(C)(C)[Si](C)(C)OC1/C(=C/C#N)C(n2ccc(=O)[nH]c2=O)OC1CO` (stereo not given), the concentration for total growth inhibition (TGI) was greater than 100 µM.

Consider `CC#C[P+](c1ccccc1)(c1ccccc1)c1ccccc1`, for which the TGI was found to be 10.1 µM.

Turning to `CCCC(O)C(NC(=O)CCl)C(=O)O` (stereo not given), the TGI was greater than 100 µM.

On to `COc1cc(/C=C/C(=O)O)ccc1C(=O)OCc1ccccc1`, for which the TGI is greater than 100 µM.

In turn, `O=C(O)c1cccnc1` displayed a TGI greater than 100 µM.

Consider `Cc1cccc(C(C)C)c1NC(=O)CC1Sc2ccccc2NC1=O` (stereo not given), for which the concentration for total growth inhibition (TGI) is greater than 100 µM.

Compound `CC(C)C1=C(Cc2ccccc2)C(=O)O/C1=C\c1cc(Cl)c(O)c(Cl)c1` yielded a total growth inhibition concentration (TGI) of 44.4 µM.

Regarding `COc1cc2c(cc1O)C1C(O)C(O)C=C3CCN(C2)C31` (stereo not given), the TGI was 4.68 µM.

Regarding `C[C@@H]1CCC2[C@@H](C)[C@@H](OCCO[C@H]3OC4O[C@@]5(C)CCC6[C@H](C)CCC([C@H]3C)[C@@]46OO5)OC3O[C@@]4(C)CCC1[C@]32OO4` (stereo not given in full), the TGI is greater than 100 µM.

Take `Cc1cc(OCc2nnc3n2N=C(c2cc(F)c(Cl)cc2Cl)/C(=C/c2ccc(Cl)cc2)S3)ccc1Cl`: the TGI was greater than 100 µM.

As for `CC(C)=CCc1c(O)ccc2ccc(=O)oc12`, the TGI was greater than 31.6 µM.
